Measurements: patent publication US20210047278A1, “E3 UBIQUITIN LIGASE AGONISTS, PHARMACEUTICAL COMPOSITIONS INCLUDING THE E3 UBIQUITIN LIGASE AGONISTS, RELATED METHODS OF USE” (FRED HUTCHINSON CANCER RESEARCH CENTER, priority 2018, published 2021)
Like-named read-outs stand apart in the source and are kept apart here.

Assays:
Format in all cases: binding
FBW7^ARG (RLFBW7) alone = target: T1, FBW7^ARG (RLFBW7) alone (Homo sapiens, UniProt Q969H0, R505L); assay: Counterscreen 1 ALPHAscreen with FBW7^ARG alone (CSRUN1/DCSRUN1); conditions: dose-response counterscreen; for Emax: read-out: RLFBW7 ACT DCSRUN1 Averaged Max % Response
T1 construct: GST (TEV site and flexible linker) (N, cleaved yes); made in house; host or cells: SF9 insect cells (baculovirus)
T1 sequence (Q969H0 64-707 R505L): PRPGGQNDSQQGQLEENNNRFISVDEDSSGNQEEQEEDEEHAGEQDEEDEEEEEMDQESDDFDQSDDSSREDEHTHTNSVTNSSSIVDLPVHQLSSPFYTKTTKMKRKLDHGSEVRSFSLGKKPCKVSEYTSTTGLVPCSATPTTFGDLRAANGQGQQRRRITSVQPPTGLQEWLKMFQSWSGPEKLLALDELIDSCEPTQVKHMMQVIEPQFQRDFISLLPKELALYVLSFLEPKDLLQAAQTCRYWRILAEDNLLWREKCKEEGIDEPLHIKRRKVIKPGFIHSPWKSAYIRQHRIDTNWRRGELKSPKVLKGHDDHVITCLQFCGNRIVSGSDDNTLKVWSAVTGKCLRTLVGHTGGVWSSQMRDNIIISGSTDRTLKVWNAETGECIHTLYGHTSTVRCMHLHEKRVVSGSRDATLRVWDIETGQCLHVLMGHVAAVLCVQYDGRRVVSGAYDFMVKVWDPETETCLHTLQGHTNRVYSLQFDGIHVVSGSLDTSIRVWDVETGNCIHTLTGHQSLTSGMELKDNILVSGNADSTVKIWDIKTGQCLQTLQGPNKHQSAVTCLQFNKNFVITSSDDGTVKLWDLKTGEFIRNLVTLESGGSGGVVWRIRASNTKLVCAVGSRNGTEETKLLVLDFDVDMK
T1 sequence (P63208 2-163 partner): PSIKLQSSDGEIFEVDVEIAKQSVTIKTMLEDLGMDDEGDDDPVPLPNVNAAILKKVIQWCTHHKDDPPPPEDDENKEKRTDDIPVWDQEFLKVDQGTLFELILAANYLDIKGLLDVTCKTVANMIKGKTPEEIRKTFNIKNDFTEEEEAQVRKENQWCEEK
Description: (§1) Studies in 384-well format were performed using the ENVISION system. Reagent concentrations (see FIG. 6A), order of addition, pH (see FIG. 6B), and reducing agent were altered with the goal of enhancing the dynamic range between wt-FBW7 (the positive control) and FBW7^ARG (FIG. 6 and not shown). Wt-FBW7 produced a signal 100× greater with phosphorylated cyclin E degron peptide compared with unphosphorylated, which represents the assay's maximum range (FIG. 6C). […] This assay thus detects the residual affinity of the FBW7^ARG-substrate interaction, which, as predicted, is stronger than wt-FBW7 protein with unphosphorylated cyclin E peptide. Concurrent with this primary assay, counter ALPHAscreens were developed which omitted either FBW7 or peptide (to eliminate hits that are general ALPHAscreen agonists), or used an irrelevant phosphopeptide (to eliminate compounds that simply augment binding to phosphopeptides). […]
(§2) The 77 hits were subjected to a dose-response assay in which each compound was tested in triplicate in a 10 point 3-fold dilutional series, to a maximum concentration of approximately 87 μM. Three screens were performed, using FBW7^ARG+pCycE (DRUN), FBW7^ARG (DCSRUN1), or pCycE alone (DCSRUN2). See TABLES 2, 3, and 4, respectively, and FIG. 10A. All of the assays performed extremely well, and threshold of 10% activation (relative to WT-FBW7+pCycE) was set as positive. […] Many hits fell into shared structure cluster ID groups, reinforcing the idea that they function as specific agonists (see below and TABLE 5).

FBW7^ARG+pCycE = target: T2, FBW7^ARG+pCycE (Homo sapiens, UniProt Q969H0, R505L); assay: FBW7^ARG-cyclin E agonist ALPHAscreen (primary PRUN, confirmation CRUN1, dose-response DRUN); conditions: for EC50 / Emax: DRUN dose-response; for Emax: relative to WT-FBW7+pCycE, read-out: FBW7 ACT Averaged Max % Response
T2 construct: GST (TEV site and flexible linker) (N, cleaved yes); made in house; host or cells: SF9 insect cells (baculovirus)
T2 sequence (Q969H0 64-707 R505L): as the sequence (Q969H0 64-707 R505L) above
T2 sequence (P63208 2-163 partner): as the sequence (P63208 2-163 partner) above
From the text: FBW7^ARG refers to a class of loss-of-function mutations of the of FBW7 ubiquitin ligase that target a key phosphate-binding arginine residue in the FBW7 substrate-binding domain. These mutations are commonly found in human cancers and promote tumorigenesis by impairing the interactions between FBW7 and its substrates, such as cyclin E and Myc. Described herein is a high throughput screen (HTS) to identify agonists, such as small molecules, that augment FBW7^ARG-substrate binding. In an embodiment, the HTS is based on the Amplified Luminescent Proximity Homogenous Assay (ALPHAscreen) because it detects protein-protein interactions with a large dynamic range. ALPHAscreen is a bead-based proximity assay wherein donor beads contain a photosensitizer, phthalocyanine, and acceptor beads contain thioxene, anthracene and rubrenein in sufficient quantities to generate a chemiluminescence/fluorescence reaction (FIG. 4A). Upon excitation with excitation illumination, such as light having a wavelength of 680 nm, of the donor beads, phthalocyanine converts ambient oxygen to singlet oxygen, which can diffuse approximately 200 nm within its 4-microsecond half-life. If an acceptor bead is in close proximity to an excited donor bead, singlet oxygen transfers its energy to the acceptor, resulting in emitted light at a broad bandwidth of −520-620 nm. The HTS-compatible FBW7/cyclin E ALPHAscreen assay described herein uses streptavidin coupled donor beads and Ni-chelate acceptor beads. In this assay, biotinylated cyclin E phosphopeptide and the His-tagged FBW7 mutant protein have high affinity for the donor and acceptor beads, respectively (FIG. 4B). A small molecule that is able to bridge the binding sites of the peptide and the mutant protein (or induce a conformational change that increases affinity of the protein for the peptide) will bring the donor and acceptor beads in close proximity to each other, resulting in an ALPHA signal. As designed, this assay format is a very sensitive, non-radioactive, homogenous “mix-and-read” format that is HT compatible in 384 and 1536 well formats.
In the 384-well screening assay, 10 uL of acceptor beads with 25 nM of the FBW7^ARG (RLFBW7) are dispensed to test wells; acceptor beads with 25 nM of the wt-FBW7 protein (WTFBW7) are dispensed to control wells. Test compounds are then added by pintool transfer and the mixture is incubated for 30 minutes. An additional 10 uL of donor beads with 25 nM cyclin E phosphopeptide is then added to all wells and the plate is incubated for 4 hours before the ALPHA signal is measured.
In preparation for large-scale screening, the assay was miniaturized to a 1536-well format. The miniaturized screen performed outstandingly in all respects. The screen was enhanced with respect to several parameters and assayed its performance using mutant FBW7 and wt-FBW7, as well as non-specific assay agonists. […] For example, the following Z′-scores/FBW7 concentrations were obtained: 6.25 nM/Z′=0.62, 12.5 nm/Z′=0.85, 25.0 nM/Z′=0.84.
1. Add 2.5 uL of RLFBW7/cycE˜P/Ni beads: Final [25 nM/25 nM/10 ug/ml].
2. Add 2.5 uL of WTFBW7/cycE˜P/Ni beads: Final [25 nM/25 nM/10 ug/ml].
4. Add 2.5 uL of SA beads to all wells Final [10 ug/ml],
5. Add 30 nL of compounds,
6. Read ALPHAscreen on Envision
The large-scale FBW7 agonist ALPHAscreen was completed using FBW7^ARG and a phosphorylated cyclin E (pCycE) degron peptide. Wt-FBW7+pCycE-peptide was the “high control”, and Wt-FBW7+unphosph. CycE peptide was the “low control”. The screen was performed on the 645,000-compound Scripps Diversity Library using 1536-well format and drug concentrations of 26.1 μM. An algorithm aided hit identification based on the average percent activation for all compounds and their standard deviation.
A confirmation assay of all 853 compounds in triplicate using a single concentration (26.1 μM). […]

pCycE alone = assay: Counterscreen 2 ALPHAscreen with cyclin E phosphopeptide alone (CSRUN2/DCSRUN2); conditions: for CyCEP ACT DCSRUN2 Averaged Max % Response: activation relative to WT-FBW7+pCycE, averaged maximum; for EC50: dose-response, triplicate, 10 point 3-fold dilutional series, read-out: CyCEP ACT DCSRUN2 Final EC50
Description: as §1, §2

[1] = raw curve fit, read-out: RLFBW7 ACT DCSRUN1 EC50 Curve Fit Raw
[2] = read-out: RLFBW7 ACT DCSRUN1 Final EC50
[3] = raw curve fit, read-out: FBW7 ACT EC50 Curve Fit Raw, Molar
[4] = triplicate, 10 point 3-fold dilution, max approx. 87 μM, read-out: FBW7 ACT Final EC50, Molar
[5] = confirmation assay, triplicate, single concentration 26.1 μM, read-out: FBW7 ACT CRUN1 Avg % Response and Stdev
[6] = primary screen, 1536-well, 26.1 μM, FBW7^ARG + pCycE degron peptide, high control wt-FBW7+pCycE, read-out: FBW7 ACT PRUN % Response

EC50 (FBW7^ARG (RLFBW7) alone; [1]) [µM]	Emax (FBW7^ARG (RLFBW7) alone) [%]	EC50 (FBW7^ARG (RLFBW7) alone; [2]) [µM]	EC50 (FBW7^ARG+pCycE; [3]) [µM]	Emax (FBW7^ARG+pCycE) [%]	EC50 (FBW7^ARG+pCycE; [4]) [µM]	activation at 26.1 µM (FBW7^ARG+pCycE; [5]) [%]	activation at 26.1 µM (FBW7^ARG+pCycE; [6]) [%]	RLFBW7 ACT DCSRUN1 Hill Slope (FBW7^ARG (RLFBW7) alone)	SMILES	CyCEP ACT DCSRUN2 Averaged Max % Response (pCycE alone) [%]	EC50 (pCycE alone) [µM]
0.255	-0.0757	> 65.3	0.255	6.18	> 65.3	2.32 ± 0.39	3.06	–	O=C(NCCCN1CCc2ccccc2C1)Nc1ccc(Br)cc1 [SR-01000123578-1]	0.28	> 65.3
0.0182	0.23	> 65.3	13.4	15.2	> 65.3	4.47 ± 0.6	4.02	–	CC(=O)Nc1ccc(NC(=O)Cn2cnc3c(cnn3C(C)(C)C)c2=O)cc1 [SR-01000137195-1]	0.27	> 65.3
4.1	1.56	> 65.3	21.5	8.52	> 65.3	2.95 ± 0.31	3.93	–	CCN(Cc1ccccc1)C(=O)c1cc2c(=O)n3cccc(C)c3nc2n1C [SR-01000140943-1]	0.79	> 65.3
0.0108	1.75	> 65.3	2.3	6.52	> 65.3	1.88 ± 0.38	2.02	–	Cc1nc(C(C)NC(=O)c2cc(COc3ccc(F)cc3F)on2)cs1 (centres unmarked) [SR-01000168282-1]	0.37	> 65.3
25.2	0.88	> 60.9	23	7.67	> 60.9	6.36 ± 0.25	2.06	–	CC1=C(C(=O)OC(C)C)C(c2ccncc2)C2=C(CC(c3ccccc3)CC2=O)N1 (centres unmarked) [SR-01000217822-2]	0.03	> 60.9
14.2	8.96	> 65.3	17.4	16.3	> 65.3	3.1 ± 0.38	2.07	–	CCN1C(=O)c2cccc3c(N4CCCC4)ccc(c23)C1=O [SR-01000221568-1]	0.35	> 65.3
0.0369	1.05	> 65.3	26.7	33.6	> 65.3	9.26 ± 0.67	11.9	–	COc1cccc(C=O)c1OC(=O)c1cccc(Cl)c1 [SR-01000242625-1]	0.61	> 65.3

Further lines, the compound ahead of its results:

SMILES	EC50 (FBW7^ARG (RLFBW7) alone; [1]) [µM]	Emax (FBW7^ARG (RLFBW7) alone) [%]	EC50 (FBW7^ARG (RLFBW7) alone; [2]) [µM]	EC50 (FBW7^ARG+pCycE; [3]) [µM]	Emax (FBW7^ARG+pCycE) [%]	EC50 (FBW7^ARG+pCycE; [4]) [µM]	activation at 26.1 µM (FBW7^ARG+pCycE; [5]) [%]	activation at 26.1 µM (FBW7^ARG+pCycE; [6]) [%]	RLFBW7 ACT DCSRUN1 Hill Slope (FBW7^ARG (RLFBW7) alone)	CyCEP ACT DCSRUN2 Averaged Max % Response (pCycE alone) [%]	EC50 (pCycE alone) [µM]
Cc1ccc(-c2cccc3cnc(Nc4ccc(-n5cnc(-c6ccccn6)n5)cc4)nc23)cn1.O=C(O)C(F)(F)F [SR-00000008492-1]	6.6	29.7	> 65.3	4	8.53	> 65.3	4.91 ± 0.39	5.73	–	0.22	> 65.3
CC(=O)NCC(c1cccs1)S(=O)(=O)c1ccc(C)cc1 (centres unmarked) [SR-01000023077-1]	33.3	0.39	> 64.6	15.3	18.4	> 64.6	2.46 ± 0.31	1.85	–	0.18	> 64.6
CCS(=O)(=O)NCC(c1cccs1)S(=O)(=O)c1ccc(C)cc1 (centres unmarked) [SR-01000023127-1]	0.0177	0.24	> 66.4	7.6	14.7	> 66.4	2.18 ± 0.61	3.19	–	0.21	> 66.4
CCN(CC)c1ccc2cc(-c3ccccn3)c(=O)oc2c1 [SR-01000033354-1]	19.4	12	> 70.9	24.5	21.9	> 70.9	3.34 ± 0.7	2.67	–	0.43	> 70.9
C/C(=N\Nc1cccc(C(F)(F)F)c1)C1CC1 [SR-01000041073-1]	42.4	101	39.8	15.5	26.6	> 75.4	10.7 ± 0.12	3.41	3.57	0.22	> 75.4
CC(C)(C)OC(=O)N/N=C\c1cccs1 [SR-01000110457-1]	0.823	1.17	> 65.3	1.4	6.03	> 65.3	2.27 ± 0.05	5.59	–	0.10	> 65.3
CCOC(=O)c1sc2ncn(CC(=O)NCCC3=CCCCC3)c(=O)c2c1C [SR-01000119175-1]	–	0.7	–	–	10.3	–	2.53 ± 0.13	2.18	–	0.13	> 65.3
Cc1cccc(N2CCN(C(=O)CCc3nc(C4=CCN(C)CC4)no3)CC2C)c1 (centres unmarked) [SR-01000140019-1]	–	-0.213	–	–	10.2	–	3.38 ± 0.3	4.08	–	0.31	> 65.3
